Drawing on US20230192657A1, “1,2,4-TRIAZOLINONE CB1 INHIBITORS” (Goldfinch Bio, Inc., priority 2020, published 2023), this text covers IC50 for 28 compounds.

SMILES strings stand for the structures. Some results are limits rather than exact numbers.

The term IC50 denotes the concentration that inhibits the measured activity by half.

CB1 receptor, sequence (P21554 whole entry): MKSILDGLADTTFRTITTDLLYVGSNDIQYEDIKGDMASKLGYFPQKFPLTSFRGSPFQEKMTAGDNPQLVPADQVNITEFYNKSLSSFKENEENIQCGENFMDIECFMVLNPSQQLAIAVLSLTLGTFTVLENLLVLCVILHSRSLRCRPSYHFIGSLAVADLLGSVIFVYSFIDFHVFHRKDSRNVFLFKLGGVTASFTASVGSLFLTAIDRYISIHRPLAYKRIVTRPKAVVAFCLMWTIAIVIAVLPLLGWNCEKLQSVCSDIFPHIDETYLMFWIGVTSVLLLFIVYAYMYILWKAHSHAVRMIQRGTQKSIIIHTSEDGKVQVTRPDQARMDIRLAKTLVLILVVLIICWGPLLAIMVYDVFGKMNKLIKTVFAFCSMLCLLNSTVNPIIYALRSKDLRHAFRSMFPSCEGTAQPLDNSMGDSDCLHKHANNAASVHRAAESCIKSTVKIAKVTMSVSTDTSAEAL

The test addresses CB1 receptor (Homo sapiens, UniProt P21554). The experiment in a line: CB1 cAMP Antagonist Assay (LANCE Ultra cAMP kit). The following applies: Flp-In CHO cells stably expressing the CB1 receptor; forskolin and CP55940 agonist at EC90; cAMP FRET readout. It is filed as cell-based. From the text:
CB1 cAMP Antagonist Assay
LANCE Ultra cAMP kit (Perkin Elmer) was used to quantitate the amount of 3′,5′-cyclic adenosine monophosphate (cAMP) produced in Flp-In CHO (Invitrogen) cells stably expressing the CB1 receptor.
Forskolin was initially titrated to determine the response of the cells. The EC90 of forskolin was used for compound testing. CP55940 was titrated and used with EC90 of forskolin to determine the level of agonist stimulation. EC90 of the agonist was used for subsequent compound testing.
Forskolin (Sigma), CP55940 (Cayman Chemicals), and AM251 (MCE) were diluted in 100% DMSO, starting at 100 mM, 1 mM, and 1 mM respectively, in 3-fold serial dilutions. Test compounds were diluted in 100% DMSO starting from 10 mM, 3-fold dilutions. The cAMP assay buffer contains 1x Hank’s Buffered Saline Solution with Ca^2+ and Mg^2+ (Invitrogen), 5.3 mM HEPES (Invitrogen), 0.05% BSA, 0.5 mM IBMX (Sigma).
For all assays, cells were harvested, counted, and diluted in cAMP assay buffer to 1× 10^5 cells/mL. Only cells with viability >85% were used for the assay. Cells were seeded at 1000 cells/well in 384-well plates and 10 nL/well AM251 or test compound was added and incubated at 37° C. for 10 min. […] To detect the amount of cAMP produced, 5 µL of a 100x diluted stock of Eu-cAMP tracer and 5 µL of 200x diluted stock of Ulight-anti-cAMP were added to each well, and the plate incubated at 25° C. for 15 min. The FRET signal was read using an EnVision microplate reader (λex=320 nm, λem=615 nm and 665 nm).
The IC50 is determined by fitting the percentage of inhibition as a function of compound concentrations with the Hill equation, using a 4-parameter fit in either XLfit or GraphPad Prism.
A general note: Time-resolved FRET reads energy transfer from a long-lived donor to a nearby acceptor.
In turn, `O=c1n(Cc2ccc(Cl)cc2)nc(N2CC3(CCc4ccccc43)C(c3ccc(Cl)cc3)=N2)n1CCO` (stereo in doubt) [Compound 118, 3-[(1R)-3-(4-chlorophenyl)-1,2,3,5-tetrahydrospiro[indene-1,4-pyrazol]-1-yl]-1-[(4-chlorophenyl)methyl]-4-(2-hydroxyethyl)-4,5-dihydro-1H-1,2,4-triazol-5-one] returned a concentration for half-maximal inhibition (IC50) of 100 to 1000 nM. Under `COCCn1c(N2CC3(CCc4ccccc43)C(c3ccc(Cl)cc3)=N2)nn(Cc2ccc(Cl)cc2)c1=O` (stereo in doubt) [Compound 120, 3-[(1R)-3-(4-chlorophenyl)-1,2,3,5-tetrahydrospiro[indene-1,4-pyrazol]-1-yl]-1-[(4-chlorophenyl)methyl]-4-(2-methoxyethyl)-4,5-dihydro-1H-1,2,4-triazol-5-one] stands 1000 to 5000 nM.

For `O=c1n(Cc2ccc(Cl)cc2)nc(N2CC3(CCc4ccccc43)C(c3ccc(Cl)cc3)=N2)n1CCO` (stereo in doubt) [Compound 121, 3-[(1S)-3-(4-chlorophenyl)-1,2,3,5-tetrahydrospiro[indene-1,4-pyrazol]-1-yl]-1-[(4-chlorophenyl)methyl]-4-(2-hydroxyethyl)-4,5-dihydro-1H-1,2,4-triazol-5-one], the concentration for half-maximal inhibition (IC50) lay in the range of 100 to 1000 nM.

`COCCn1c(N2CC3(CCc4ccccc43)C(c3ccc(Cl)cc3)=N2)nn(Cc2ccc(Cl)cc2)c1=O` (stereo in doubt) [Compound 123, 3-[(1S)-3-(4-chlorophenyl)-1,2,3,5-tetrahydrospiro[indene-1,4-pyrazol]-1-yl]-1-[(4-chlorophenyl)methyl]-4-(2-methoxyethyl)-4,5-dihydro-1H-1,2,4-triazol-5-one] showed a 50% inhibitory concentration (IC50) of 100 to 1000 nM. With `NC(=O)CCn1c(N2CC3(CCc4ccccc43)C(c3ccc(Cl)cc3)=N2)nn(Cc2ccc(Cl)cc2)c1=O` (stereo in doubt) [Compound 132, 3-[3-[(1R)-3-(4-chlorophenyl)-1,2,3,5-tetrahydrospiro[indene-1,4-pyrazol]-1-yl]-1-[(4-chlorophenyl)methyl]-5-oxo-4,5-dihydro-1H-1,2,4-triazol-4-yl]propanamide], the concentration for half-maximal inhibition (IC50) was 1000 to 5000 nM. Under `NC(=O)CCn1c(N2CC3(CCc4ccccc43)C(c3ccc(Cl)cc3)=N2)nn(Cc2ccc(Cl)cc2)c1=O` (stereo in doubt) [Compound 133, 3-[3-[(1S)-3-(4-chlorophenyl)-1,2,3,5-tetrahydrospiro[indene-1,4-pyrazol]-1-yl]-1-[(4-chlorophenyl)methyl]-5-oxo-4,5-dihydro-1H-1,2,4-triazol-4-yl]propanamide] stands 1000 to 5000 nM; under `Cn1c(N2CC3(CCc4ccccc43)C(c3ccc(Cl)cc3)=N2)nn(CC2CCCCC2)c1=O` (stereo in doubt) [Compound 139, 3-[(1S)-3-(4-chlorophenyl)-1,2,3,5-tetrahydrospiro[indene-1,4-pyrazol]-1-yl]-1-(cyclohexylmethyl)-4-methyl-4,5-dihydro-1H-1,2,4-triazol-5-one], 100 to 1000 nM.

For the compound `Cn1c(N2CC3(CCc4ccccc43)C(c3ccc(Cl)cc3)=N2)nn(CC2CCCCC2)c1=O` (stereo in doubt) [Compound 140, 3-[(1R)-3-(4-chlorophenyl)-1,2,3,5-tetrahydrospiro[indene-1,4-pyrazol]-1-yl]-1-(cyclohexylmethyl)-4-methyl-4,5-dihydro-1H-1,2,4-triazol-5-one], the half-maximal inhibitory concentration (IC50) lay within 1000 to 5000 nM.

For the compound `C[C@@H](c1ccc(Cl)cc1)n1nc(N2CC(c3ccccc3)C(c3ccc(Cl)cc3)=N2)n(CC(N)=O)c1=O` (stereo in doubt) [Compound 150, 2-[3-[(4S)-3-(4-chlorophenyl)-4-phenyl-4,5-dihydropyrazol-1-yl]-1-[(1S)-1-(4-chlorophenyl)ethyl]-5-oxo-1,2,4-triazol-4-yl]acetamide], the IC50 is 100 to 1000 nM. Take `Cn1c(N2C[C@@H](c3ccccc3)C(c3ccc(Cl)cc3)=N2)nn(-c2ccc(Cl)cc2)c1=O` [Compound 100]: the IC50 was > 5000 nM. Under `Cn1c(N2C[C@H](c3ccccc3)C(c3ccc(Cl)cc3)=N2)nn(-c2ccc(Cl)cc2)c1=O` [Compound 101, 1-(4-chlorophenyl)-3-[(4S)-3-(4-chlorophenyl)-4-phenyl-4,5-dihydro-1H-pyrazol-1-yl]-4-methyl-4,5-dihydro-1H-1,2,4-triazol-5-one] stands < 100 nM; under `Cn1c(N2C[C@H](c3ccccc3)C(c3ccc(Cl)cc3)=N2)nn(Cc2ccc(Cl)cc2)c1=O` [Compound 102], 100 to 1000 nM. In the case of `Cn1c(N2C[C@@H](c3ccccc3)C(c3ccc(Cl)cc3)=N2)nn(Cc2ccc(Cl)cc2)c1=O` [Compound 103], the IC50 was < 100 nM. In the case of `CCOC(=O)Cn1c(N2C[C@H](c3ccccc3)C(c3ccc(Cl)cc3)=N2)nn(-c2ccc(Cl)cc2)c1=O` [Compound 104, ethyl 2-[1-(4-chlorophenyl)-3-[(4S)-3-(4-chlorophenyl)-4-phenyl-4,5-dihydro-1H-pyrazol-1-yl]-5-oxo-4,5-dihydro-1H-1 ,2,4-triazol-4-yl]acetate], the 50% inhibitory concentration (IC50) is < 100 nM. Under `CCOC(=O)Cn1c(N2C[C@@H](c3ccccc3)C(c3ccc(Cl)cc3)=N2)nn(-c2ccc(Cl)cc2)c1=O` [Compound 105, ethyl 2-[1-(4-chlorophenyl)-3-[(4R)-3-(4-chlorophenyl)-4-phenyl-4,5-dihydro-1H-pyrazol-1-yl]-5-oxo-4,5-dihydro-1H-1,2,4-triazol-4-yl]acetate] stands < 100 nM; under `NC(=O)Cn1c(N2C[C@@H](c3ccccc3)C(c3ccc(Cl)cc3)=N2)nn(Cc2ccc(Cl)cc2)c1=O` [Compound 106, 2-[3-[(4R)-3-(4-chlorophenyl)-4-phenyl-4,5-dihydro-1H-pyrazol-1-yl]-1-[(4-chlorophenyl)methyl]-5-oxo-4,5-dihydro-1H-1,2,4-triazol-4-yl]acetamide], 1000 to 5000 nM. The figure for `NC(=O)Cn1c(N2C[C@H](c3ccccc3)C(c3ccc(Cl)cc3)=N2)nn(Cc2ccc(Cl)cc2)c1=O` [Compound 107, 2-[3-[(4S)-3-(4-chlorophenyl)-4-phenyl-4,5-dihydro-1H-pyrazol-1-yl]-1-[(4-chlorophenyl)methyl]-5-oxo-4,5-dihydro-1H-1,2,4-triazol-4-yl]acetamide] is < 100 nM. For the compound `NC(=O)Cn1c(N2C[C@@H](c3ccccc3)C(c3ccc(Cl)cc3)=N2)nn(-c2ccc(Cl)cc2)c1=O` [Compound 108, 2-[1-(4-chlorophenyl)-3-[(4R)-3-(4-chlorophenyl)-4-phenyl-4,5-dihydro-1H-pyrazol-1-yl]-5-oxo-4,5-dihydro-1H-1 ,2,4-triazol-4-yl]acetamide], the half-inhibitory concentration (IC50) was < 100 nM. For `Cn1c(N2C[C@]3(CCc4ccccc43)C(c3ccc(Cl)cc3)=N2)nn(-c2ccc(Cl)cc2)c1=O` [Compound 109], the half-inhibitory concentration (IC50) was > 5000 nM. Take `COCCn1c(N2C[C@]3(CCc4ccccc43)C(c3ccc(Cl)cc3)=N2)nn(-c2ccc(Cl)cc2)c1=O` [Compound 110]: the concentration for half-maximal inhibition (IC50) is > 5000 nM. On to `NC(=O)Cn1c(N2C[C@H](c3ccccc3)C(c3ccc(Cl)cc3)=N2)nn(-c2ccc(Cl)cc2)c1=O` [Compound 111, (S)-2-(1-(4-chlorophenyl)-3-(3-(4-chlorophenyl)-4-phenyl-4,5-dihydro-1H-pyrazol-1-yl)-5-oxo-1,5-dihydro-4H-1,2,4-triazol-4-yl)acetamide], for which the IC50 is < 100 nM. Take `O=c1n(-c2ccc(Cl)cc2)nc(N2C[C@@]3(CCc4ccccc43)C(c3ccc(Cl)cc3)=N2)n1CCO` [Compound 112]: the IC50 is > 5000 nM. On to `Cn1c(N2C[C@@]3(CCc4ccccc43)C(c3ccc(Cl)cc3)=N2)nn(Cc2ccc(Cl)cc2)c1=O` [Compound 113], for which the IC50 lay within 1000 to 5000 nM. The figure for `O=c1n(-c2ccc(Cl)cc2)nc(N2C[C@]3(CCc4ccccc43)C(c3ccc(Cl)cc3)=N2)n1CCO` [Compound 114, 1-(4-chlorophenyl)-3-[(1R)-3-(4-chlorophenyl)-1,2,3,5-tetrahydrospiro[indene-1,4-pyrazol]-1-yl]-4-(2-hydroxyethyl)-4,5-dihydro-1H-1,2,4-triazol-5-one] is 100 to 1000 nM. The compound `Cn1c(N2C[C@]3(CCc4ccccc43)C(c3ccc(Cl)cc3)=N2)nn(Cc2ccc(Cl)cc2)c1=O` [Compound 115, 3-[(1R)-3-(4-chlorophenyl)-1,2,3,5-tetrahydrospiro[indene-1,4-pyrazol]-1-y1]-1-[(4-chlorophenyl)methyl]-4-methyl-4,5-dihydro-1H-1,2,4-triazol-5-one] had an IC50 of 1000 to 5000 nM.

With `Cn1c(N2C[C@@]3(CCc4ccccc43)C(c3ccc(Cl)cc3)=N2)nn(-c2ccc(Cl)cc2)c1=O` [Compound 116], the IC50 is > 5000 nM. For the compound `COCCn1c(N2C[C@@]3(CCc4ccccc43)C(c3ccc(Cl)cc3)=N2)nn(-c2ccc(Cl)cc2)c1=O` [Compound 117], the 50% inhibitory concentration (IC50) is > 5000 nM. Under `NC(=O)Cn1c(N2C[C@@]3(CCc4ccccc43)C(c3ccc(Cl)cc3)=N2)nn(-c2ccc(Cl)cc2)c1=O` [Compound 119] stands > 5000 nM.
